The values below come from ChEMBL document CHEMBL4339244, “Clavariopsins C-I, Antifungal Cyclic Depsipeptides from the Aquatic Hyphomycete Clavariopsis aquatica” (J Nat Prod, 2019).

Activity calls are given as the source filed them. No cut-off for these calls is given here.

One assay deals with Botrytis cinerea. In words: Antifungal activity against Botrytis cinerea assessed as inhibition of microbial growth by measuring minimum inhibitory dose per disc inducing visually distinct inhibition zone between the paper disk and colony front by paper disk based assay. It is filed as functional.
In the next assay the test system is Alternaria alternata. Put plainly: Antifungal activity against Alternaria alternata assessed as inhibition of microbial growth by measuring minimum inhibitory dose per disc inducing visually distinct inhibition zone between the paper disk and colony front by paper disk based assay. Type of assay: functional.
The test system of assay [1] is Aspergillus niger. In words: Induction of hyphal malformation in Aspergillus niger assessed as minimum effective dose per disc results in obvious morphological changes incubated for 16 hrs by phase contrast microscopy. Type of assay: functional.
The subject of a further assay is HeLa S3. In words: Cytotoxicity in human HeLaS3 cells assessed as reduction in cell viability incubated for 48 hrs by MTT assay. Type of assay: functional, cell-based. The note with it: HeLa S3, 48 h. In general terms: Formazan colour is commonly taken as a measure of viable cells.
The subject of assay [2] is Colletotrichum orbiculare. Put plainly: Antifungal activity against Colletotrichum orbiculare assessed as inhibition of microbial growth by measuring minimum inhibitory dose per disc inducing visually distinct inhibition zone between the paper disk and colony front by paper disk based assay. Type of assay: functional, organism-based.
A further assay concerns Pyricularia oryzae. In words: Antifungal activity against Magnaporthe oryzae assessed as inhibition of microbial growth by measuring minimum inhibitory dose per disc inducing visually distinct inhibition zone between the paper disk and colony front by paper disk based assay. It is filed as functional, organism-based.
The next assay has as its system Fusarium oxysporum. Put plainly: Antifungal activity against Fusarium oxysporum assessed as inhibition of microbial growth by measuring minimum inhibitory dose per disc inducing visually distinct inhibition zone between the paper disk and colony front by paper disk based assay. It is filed as functional, organism-based.
Assay [3] deals with Aspergillus niger. Put plainly: Antifungal activity against Aspergillus niger assessed as inhibition of microbial growth by measuring minimum inhibitory dose per disc inducing visually distinct inhibition zone between the paper disk and colony front by paper disk based assay. Type of assay: functional, organism-based.

In general, IC50 refers to the midpoint of a concentration-inhibition curve.

Take `CC[C@H](C)[C@@H]1NC(=O)[C@H]([C@@H](C)CC)N(C)C(=O)[C@H](CC(=O)O)N(C)C(=O)[C@H](C(C)C)NC(=O)[C@H](C(C)C)N(C)C(=O)[C@@H]2CCCCN2C(=O)[C@@H](C(C)C)OC(=O)[C@H](Cc2ccc(OC)cc2)NC(=O)[C@H](C(C)C)N(C)C(=O)CNC1=O`: the MID was 0.01 to 0.3 µg in the assay with Botrytis cinerea and 0.01 µg in the assay on Alternaria alternata. For the same compound, the MED in the assay with Aspergillus niger [1] worked out at 0.3 µg. Also, the IC50 in the assay on HeLa S3 is more than 10 µM. Further, the inhibition entry (in assay [2]; in the assay on Pyricularia oryzae; with Fusarium oxysporum; with Aspergillus niger [3]) was “Active” throughout.

Regarding `CC[C@H](C)[C@H]1C(=O)N(C)[C@@H](C(C)C)C(=O)NCC(=O)N(C)[C@@H](C(C)C)C(=O)N[C@@H](Cc2ccc(OC)cc2)C(=O)O[C@H](C(C)C)C(=O)N2CCCC[C@H]2C(=O)N(C)[C@@H](C(C)C)C(=O)N[C@@H](C(C)C)C(=O)N(C)[C@@H](CC(=O)O)C(=O)N1C`, the MID with Botrytis cinerea was 0.01 to 0.3 µg; in the assay on Alternaria alternata, 0.03 to 0.3 µg. The MED in the assay with Aspergillus niger [1] turned out to be 0.3 µg. Moreover, the IC50 in the assay on HeLa S3 was more than 10 µM. Besides, the inhibition result (in assay [2]; in the assay with Pyricularia oryzae; in the assay on Fusarium oxysporum; with Aspergillus niger [3]) was “Active” each time.

Regarding `CC[C@H](C)[C@H]1C(=O)NCC(=O)N(C)[C@@H](C(C)C)C(=O)N[C@@H](Cc2ccc(OC)cc2)C(=O)O[C@H](C(C)C)C(=O)N2CCCC[C@H]2C(=O)N(C)[C@@H](C(C)C)C(=O)N[C@@H](C(C)C)C(=O)N(C)[C@@H](CC(=O)O)C(=O)N(C)[C@@H]([C@@H](C)CC)C(=O)N1C`, the results for the MID in the assay with Botrytis cinerea and with Alternaria alternata were 0.01 to 0.3 µg and 0.01 µg, respectively. Besides, the MED in the assay with Aspergillus niger [1] was found to be 0.3 µg. The IC50 with HeLa S3 was more than 10 µM. Moreover, the inhibition result (in assay [2]; in the assay on Pyricularia oryzae; in the assay with Fusarium oxysporum; in the assay on Aspergillus niger [3]) was “Active” each time.

As to `CC[C@H](C)[C@H]1C(=O)N(C)[C@@H](CC(C)C)C(=O)NCC(=O)N(C)[C@@H](C(C)C)C(=O)N[C@@H](Cc2ccc(OC)cc2)C(=O)O[C@H](C(C)C)C(=O)N2CCCC[C@H]2C(=O)N(C)[C@@H](C(C)C)C(=O)N[C@@H](C(C)C)C(=O)N(C)[C@@H](CC(=O)O)C(=O)N1C`, the MID fell in the range of 0.01 to 0.3 µg in the assay on Botrytis cinerea and 0.03 to 0.3 µg with Alternaria alternata. The MED in the assay on Aspergillus niger [1] came out at 0.3 µg. Also, in the assay with HeLa S3, the IC50 is more than 10 µM. The inhibition result (in assay [2]; in the assay with Pyricularia oryzae; in the assay with Fusarium oxysporum; in the assay on Aspergillus niger [3]) was “Active” in each case.

In the case of `CC[C@H](C)[C@H]1C(=O)NCC(=O)N(C)[C@@H](C(C)C)C(=O)N[C@@H](Cc2ccc(OC)cc2)C(=O)O[C@H](C(C)C)C(=O)N2CCCC[C@H]2C(=O)N[C@@H](C(C)C)C(=O)N[C@@H](C(C)C)C(=O)N(C)[C@@H](CC(=O)O)C(=O)N(C)[C@@H]([C@@H](C)CC)C(=O)N1C`, the MID in the assay with Botrytis cinerea fell in the range of 0.01 to 0.3 µg; in the assay with Alternaria alternata, 0.03 to 0.3 µg. Also, the MED in the assay on Aspergillus niger [1] was 3 µg. Besides, the IC50 in the assay on HeLa S3 is more than 10 µM. Besides, the inhibition entry (in assay [2]; in the assay on Pyricularia oryzae; in the assay with Fusarium oxysporum; with Aspergillus niger [3]) was “Active” throughout.

`CC[C@H](C)[C@H]1C(=O)NCC(=O)N(C)[C@@H](C(C)C)C(=O)N[C@@H](Cc2ccc(OC)cc2)C(=O)O[C@H](C(C)C)C(=O)N2CCCC[C@H]2C(=O)N(C)[C@@H](C(C)C)C(=O)N[C@@H](C(C)C)C(=O)N(C)[C@@H](CC(=O)O)C(=O)N(C)[C@@H](CC(C)C)C(=O)N1C`: the MID lay in the range of 0.01 to 0.3 µg in the assay on Botrytis cinerea and 0.03 to 0.3 µg with Alternaria alternata. Besides, in the assay with Aspergillus niger [1], the MED was found to be 0.3 µg. In addition, in the assay on HeLa S3, the IC50 was more than 10 µM. The inhibition entry (in assay [2]; in the assay with Pyricularia oryzae; in the assay on Fusarium oxysporum; in the assay with Aspergillus niger [3]) was “Active” in each case.

For `CC[C@H](C)[C@H]1C(=O)NCC(=O)N(C)[C@@H](C(C)C)C(=O)N[C@@H](Cc2ccc(OC)cc2)C(=O)O[C@H](C(C)C)C(=O)N2CCCC[C@H]2C(=O)N(C)[C@@H](C(C)C)C(=O)N[C@@H](CC(C)C)C(=O)N(C)[C@@H](CC(=O)O)C(=O)N(C)[C@@H]([C@@H](C)CC)C(=O)N1C`, the MID with Botrytis cinerea lay within 0.01 to 0.3 µg; with Alternaria alternata, 0.03 to 0.3 µg. The MED in the assay with Aspergillus niger [1] was 3 µg. Besides, the 50% inhibitory concentration (IC50) with HeLa S3 was more than 10 µM. Moreover, the inhibition result (in assay [2]; in the assay with Pyricularia oryzae; in the assay on Fusarium oxysporum; in the assay with Aspergillus niger [3]) was “Active” throughout.

Regarding `CC[C@H](C)[C@H]1C(=O)NCC(=O)N(C)[C@@H](C(C)C)C(=O)N[C@@H](Cc2ccc(OC)cc2)C(=O)O[C@H](C(C)C)C(=O)N2CCC[C@H]2C(=O)N(C)[C@@H](C(C)C)C(=O)N[C@@H](C(C)C)C(=O)N(C)[C@@H](CC(=O)O)C(=O)N(C)[C@@H]([C@@H](C)CC)C(=O)N1C`, the results for the MID with Botrytis cinerea and in the assay with Alternaria alternata were 0.01 to 0.3 µg and 0.03 to 0.3 µg, respectively. Also, the MED in the assay on Aspergillus niger [1] was found to be 0.3 µg. In addition, the IC50 in the assay on HeLa S3 is more than 10 µM. The inhibition result (in assay [2]; with Pyricularia oryzae; in the assay on Fusarium oxysporum; in the assay on Aspergillus niger [3]) was “Active” in each case.

For `CC[C@H](C)[C@H]1C(=O)NCC(=O)N(C)[C@@H](C(C)C)C(=O)N[C@@H](Cc2ccc(OC)cc2)C(=O)O[C@H](C(C)C)C(=O)N2CCCC[C@H]2C(=O)N(C)[C@@H](C(C)C)C(=O)N[C@@H](C(C)C)C(=O)N(C)[C@@H](CC(=O)O)C(=O)N(C)[C@@H](C(C)C)C(=O)N1C`, the MID was 0.01 to 0.3 µg in the assay with Botrytis cinerea and 0.01 µg in the assay with Alternaria alternata. In addition, in the assay on Aspergillus niger [1], the MED was found to be 0.3 µg. Further, the concentration for half-maximal inhibition (IC50) with HeLa S3 is more than 10 µM. The inhibition entry (in assay [2]; with Pyricularia oryzae; in the assay with Fusarium oxysporum; in the assay with Aspergillus niger [3]) was “Active” in each case.
